The values below come from patent US9546144B2, “Bifunctional compounds” (University of Pittsburgh—of the Commonwealth System of …, priority 2011, dated 2017).

The test system of this assay is fibrosis associated gene transcripts in lung. Nature of the assay: RT-PCR of gene transcripts in lungs of 20 Gy thoracic irradiated mice. The assay is classed as in vivo, mouse. Particulars: 100 μM in drinking water continuously from day 80 after 20 Gy. As to the method: FIGS. 20A-20D. MMS350 decreases levels of irradiation induced endothelial and alveolar cell specific RNA levels. Endothelial and alveolar cells were isolated from the lungs of irradiated control or MMS350 treated mice at days 0, 29, 150, and 200 after 20 Gy thoracic irradiation. […] RNA was isolated and RT-PCR was performed for gene expression for: FIG. 20A oxidative stress induced promoters; FIG. 20B endothelial and alveolar cell markers; FIG. 20C fibrosis associated genes; and FIG. 20D endothelial cell markers. […]
FIGS. 21A-21C. […] Expression of BD1, BD2, BD3, and BRDT was determined.
Measurement of Levels of Gene Transcripts for Irradiation Inducible Promoters, Growth Factors, Inflammatory Cytokines, Adhesion Molecules microRNA, and Bromodomain Epigenetic Reader Proteins by RT-PCR
RNA was extracted from mouse lung or purified cell populations using the TRIzol reagent (Invitrogen, Carlsbad, Calif.) following the manufacturer's instructions, quantified using a spectrophotometer, and stored at −80° C. […]
Data for each gene were normalized by calculating the differences (ΔCt) from the Ct-GUSB and Ct-Target genes. Subsequently, the relative increase or decrease in expression was calculated by comparing the reference gene with the target gene (ΔΔCt) and using the formula for relative expression (=2^ΔΔCt). […]

`CC1(C[S+]([O-])CC2(C)COC2)COC1` [compound 3, 3,3′-Sulfinylbis(methylene)bis(3-methyloxetane)]: the “fibrosis phase mRNA expression” value was “decreased expression of fibrosis phase mRNA expression”.
